# Experimental data: patent US9353067B2, “Heterocyclic compounds and uses thereof in the treatment of sexual disorders” (ATIR Holding S.A., priority 2011, dated 2016)
# Where “and” joins values, the source holds several entries; their conditions need not be identical. Equal entries are not always repeated. Where two headings read alike, the source gives them in different places.
# Columns and labels:
# [1] = Pharmacokinetics of R-55 following intravenous administration in pigs; type: in vivo, White Landrace female pigs; settings: 0.2 mg/kg intravenous
# Method: R-55 and related compounds were assayed in the plasma samples using a Waters (USA) Alliance high performance liquid chromatograph coupled with a Waters Micromass ZQ quadruple mass spectrometer (in ESI+ mode) as a detector with Waters Empower chromatographic and mass spectrometric software for chromatographic data acquisition, processing and instrument control.
# The tested compound was extracted from plasma using dichloromethane, followed by concentration by evaporating the extract and dissolution in a low volume chromatographic mobile phase.
# The instrument was calibrated using plasma spiked with various concentrations of the tested compound. Enrofloxacin (m/z=360.4) was used as an internal standard.
# In order to investigate the pharmacokinetics of R-55, the presence of R-55 in plasma was measured following intravenous administration of R-55 in pigs.
# White Landrace female pigs were acclimatized for 2days prior to treatment. 3 pigs were administered 0.2 mg/kg R-55 by intravenous injection at a dose volume of 0.2 ml/kg. Blood samples were withdrawn from each pig via a jugular vein catheter at the following time points: immediately prior to injection (t=0), and 5 minutes, 10 minutes, 15 minutes, 30 minutes, 45 minutes, 60 minutes, 90 minutes, 2 hours, 3 hours, 4 hours, and 6 hours post-injection. All samples were collected in a K3EDTA tube (Greiner). Blood samples were stored on crushed ice after collection. Plasma was separated by centrifugation (10 minutes at 3000 rotations per minute), within two hours post-sampling. Each plasma sample was divided into two aliquots before freezing. Plasma samples were then stored at −20° C. until being dispatched for LCMS analysis.
# Clinical observations were performed during the six hours following application.
# Pharmacokinetic analysis was performed using the WINNONLIN version 5.0 (Pharsight, USA) computerized software. Area under curves of concentration vs. time (AUC) were calculated using the log linear trapezoidal rule. Area under curves were determined for the time period for which concentrations were measured, i.e., t=0 to 6 hours (AUCall), and for an infinite time period (AUCINF), as determined by extrapolation of the curve to t=∞.
# [2] = molecular target: D2 short receptor (Homo sapiens (Human), UniProt P14416); test: Competitive binding to D2 short receptor ([3H]-spiperone), D4/D2 selectivity; settings: ratio of concentrations required to inhibit 50% of radioligand binding for each receptor
# Chain of D2 short receptor (P14416 other isoform, or with tags, fused parts or gaps): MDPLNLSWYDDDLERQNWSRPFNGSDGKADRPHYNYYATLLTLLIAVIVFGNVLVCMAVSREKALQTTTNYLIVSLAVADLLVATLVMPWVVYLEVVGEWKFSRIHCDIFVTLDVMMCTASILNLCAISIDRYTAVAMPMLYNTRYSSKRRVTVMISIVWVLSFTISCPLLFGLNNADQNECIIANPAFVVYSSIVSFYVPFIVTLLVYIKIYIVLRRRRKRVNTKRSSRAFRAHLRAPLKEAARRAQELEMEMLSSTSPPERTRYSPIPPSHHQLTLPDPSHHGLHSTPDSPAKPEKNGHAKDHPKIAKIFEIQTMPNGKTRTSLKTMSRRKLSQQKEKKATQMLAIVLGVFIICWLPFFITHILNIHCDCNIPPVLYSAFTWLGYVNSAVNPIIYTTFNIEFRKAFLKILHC
# Method: R-55 (which comprises a 3-hydroxyphenyl moiety) and its isomers L-221 (comprising a 4-hydroxyphenyl moiety) and L-238 (comprising a 2-hydroxyphenyl moiety) were assayed for competitive binding to D2 SHORT and D4.4 type dopamine receptors, in order to assess their efficacy for treating sexual disorders. Both receptor types are expressed as human recombinant proteins in CHO cells, as described, for example, in Jarvis et al. (1973); Van Tol et al. (1991) and Van Tol et al. (1992).
# Determination of binding to D2 short receptor was performed using [^3H]-spiperone, a D2 receptor ligand (Gundlach et al., 1984), as a radioligand (20-60 Ci/mmol, 0.2 nM) in the presence of various concentrations of the tested compound. Reactions were carried out in 50 mM TRIS-HCl (pH 7.4) containing 120 mM NaCl, 5 mM KCl, 5 mM MgCl2 and 1 mM EDTA, for 60 minutes at 25° C. The reaction was terminated by rapid vacuum filtration onto glass fiber filters. Radioactivity trapped onto the filters was determined (counted) and compared to control values in order to accurately evaluate any interaction of the test compound(s) with the cloned dopamine D2 short binding site.
# Selectivity of R-55 was calculated as the D4/D2 binding ratio, based on the ratio of the concentration required to inhibit 50% of the radioligand binding for each receptor.
# [3] = molecular target: Dopamine D2S receptor (Homo sapiens (Human), UniProt P14416); test: Competitive binding, spiperone radioligand
# Chain of Dopamine D2S receptor (P14416 other isoform, or with tags, fused parts or gaps): as above
# Method: (§1) R-55 (which comprises a 3-hydroxyphenyl moiety) and the structurally related compounds N-108 (2-{[4-(2-ethoxyphenyl)piperazin-1-yl]methyl}quinazolin-4(3H)-one) and B-39 (7-chloro-2-((5,6-dihydro-4-(2-methoxyphenyl)pyridin-1(2H)-yl)methyl)quinazolin-4(3H)-one) were assayed for competitive binding to a variety of receptors, including D4.4 type dopamine receptor, in order to assess their specificity for D4.4 dopamine receptors.
# (§2) The receptors were expressed as human recombinant proteins in CHO cells, except for adrenergic α1 and α2 receptors which were expressed in Wistar rat brain and cerebral cortex cells, respectively, and melanocortin MC4 receptor which was expressed in human recombinant HEK-293 cells. Binding was determined using the following radioligands in the presence of various concentrations of the tested compound:
# (§3) 0.16 nM, 0.7 nM and 1.2 nM spiperone, respectively, for dopamine D2S, D3 and D4.4 receptors,
# (§4) The binding assays were performed in accordance with procedures described in the literature (Greengrass & Bremner, 1979; Boyajian & Leslie, 1987; Broadhurst, 1988; Lewis, 2001; Sutton, 1995; Dearry, 1990; Zhou, 1990; Grandy, 1989; Hayes, 1992; Sokoloff, 1990; Van Tol, 1991; Van Tol 1992; Sunahara, 1991; Weinshank, 1991; Schioth, 1996; Schioth 1997; Martin & Humphrey, 1994; May, 2003; Wolf & Schutz, 1997).
# [4] = molecular target: Dopamine D3 receptor (Homo sapiens (Human), UniProt P35462); test: Competitive binding, spiperone radioligand
# Chain of Dopamine D3 receptor (P35462 whole entry): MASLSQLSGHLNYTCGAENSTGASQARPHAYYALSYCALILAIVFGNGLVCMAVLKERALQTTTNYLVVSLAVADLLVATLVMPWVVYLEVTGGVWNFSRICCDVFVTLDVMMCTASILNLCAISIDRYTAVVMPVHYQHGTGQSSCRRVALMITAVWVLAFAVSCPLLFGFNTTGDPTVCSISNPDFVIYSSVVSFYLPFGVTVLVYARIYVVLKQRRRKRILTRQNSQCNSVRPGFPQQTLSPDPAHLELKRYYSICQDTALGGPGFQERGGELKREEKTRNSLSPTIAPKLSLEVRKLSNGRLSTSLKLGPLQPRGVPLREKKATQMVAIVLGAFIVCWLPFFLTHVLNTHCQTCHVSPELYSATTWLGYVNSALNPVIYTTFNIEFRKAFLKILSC
# Method: as §1, §2, §3, §4
# [5] = molecular target: Dopamine D4.4 receptor (Homo sapiens (Human), UniProt P21917); test: Competitive binding, spiperone radioligand
# Chain of Dopamine D4.4 receptor (P21917 whole entry): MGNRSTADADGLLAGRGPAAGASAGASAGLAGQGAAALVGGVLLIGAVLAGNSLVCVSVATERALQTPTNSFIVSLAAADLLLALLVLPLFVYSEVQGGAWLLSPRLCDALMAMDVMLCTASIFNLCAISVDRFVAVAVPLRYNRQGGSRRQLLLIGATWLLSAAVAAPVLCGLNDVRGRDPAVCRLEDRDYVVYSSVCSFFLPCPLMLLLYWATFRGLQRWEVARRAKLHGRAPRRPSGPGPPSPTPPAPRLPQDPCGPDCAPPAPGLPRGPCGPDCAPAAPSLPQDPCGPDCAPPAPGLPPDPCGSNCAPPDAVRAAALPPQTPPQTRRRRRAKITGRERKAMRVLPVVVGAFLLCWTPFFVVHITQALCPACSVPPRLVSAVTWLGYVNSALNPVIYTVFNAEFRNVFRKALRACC
# Method: as §1, §2, §3, §4
# [6] = molecular target: Serotonin 5-HT2C receptor (Homo sapiens (Human), UniProt P28335); test: Competitive binding, mesulergine radioligand
# Chain of Serotonin 5-HT2C receptor (P28335 33-458): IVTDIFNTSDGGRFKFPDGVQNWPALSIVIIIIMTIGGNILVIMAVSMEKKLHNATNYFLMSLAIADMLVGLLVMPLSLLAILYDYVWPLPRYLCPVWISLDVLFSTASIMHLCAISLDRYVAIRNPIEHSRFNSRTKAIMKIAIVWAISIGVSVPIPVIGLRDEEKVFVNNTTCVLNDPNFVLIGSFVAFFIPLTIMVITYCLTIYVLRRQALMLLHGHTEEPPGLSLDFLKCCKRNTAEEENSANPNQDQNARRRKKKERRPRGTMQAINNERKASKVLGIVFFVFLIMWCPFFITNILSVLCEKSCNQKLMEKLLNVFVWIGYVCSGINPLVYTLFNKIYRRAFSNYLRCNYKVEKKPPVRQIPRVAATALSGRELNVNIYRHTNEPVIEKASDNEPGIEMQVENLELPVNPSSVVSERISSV
# Method: as §1, §2
# 1 nM mesulergine for serotonin 5-HT2C receptor.
# as §4
structure (smiles),measurement,setting,value
"O=c1[nH]c(CN2CCN(c3cccc(O)c3)CC2)nc2ccccc12 [Compound R-55, 2-((4-(3-hydroxyphenyl)piperazin-1-yl)methyl)quinazolin-4-one]",Time to elimination from the bloodstream after administration,[1],≤ 30 min
same,R-55 plasma concentration,"[1]; 0 minutes (immediately prior to injection), individual animals #1-#3",0 ng/mL
same,R-55 plasma concentration,"[1]; 5 minutes after injection, individual animals #1-#3",122.1 ng/mL and 142.2 ng/mL
same,R-55 plasma concentration,"[1]; 10 minutes after injection, individual animals #1-#3",112.9 ng/mL and 83.0 ng/mL
same,R-55 plasma concentration,"[1]; 15 minutes after injection, individual animals #1-#3",30.4 ng/mL and 76.8 ng/mL and 52.8 ng/mL
same,R-55 plasma concentration,"[1]; 30 minutes after injection, individual animals #1-#3",0 ng/mL and 24.9 ng/mL and 22.3 ng/mL
same,R-55 detection in plasma,[1]; 45 minutes or more following administration,No R-55 was detected
same,AUCINF,"[1]; extrapolation to infinite time, individual animals",2501.3 ng·min/mL and 2132.2 ng·min/mL
same,Clearance,[1]; individual animals,4.8 L/h/kg and 5.63 L/h/kg
same,Cmax - maximal concentration,[1]; individual animals,0.1221 µg/mL and 0.1422 µg/mL
same,Mean residence time,[1]; individual animals,17.0 min and 15.8 min
same,T1/2 - half-life,[1]; individual animals,8.67 min and 10.34 min and 9.67 min
same,Volume of distribution,[1]; individual animals,1.193 L/kg and 1.3081 L/kg
same,Volume of distribution at steady state,[1]; individual animals,1.3589 L/kg and 1.5093 L/kg
same,Clinical observations (side effects),[1]; six hours following application,No abnormal side effects were observed
same,AUCall,"[1]; t=0 to 6 hours, individual animals",2129.0 ng·min/mL and 1821.3 ng·min/mL
same,concentration at 0 min,"[1]; female, White Landrace, pig, plasma, iv, 0.2 mg/kg, 0 minutes (immediately prior to injection), individual animals #1-#3",0 µg/mL
same,concentration at 5 min,"[1]; female, White Landrace, pig, plasma, iv, 0.2 mg/kg, 5 minutes after injection, individual animals #1-#3",0.158 µg/mL
same,concentration at 10 min,"[1]; female, White Landrace, pig, plasma, iv, 0.2 mg/kg, 10 minutes after injection, individual animals #1-#3",0.0867 µg/mL
same,AUC(0-inf),"[1]; female, White Landrace, pig, plasma, iv, 0.2 mg/kg, extrapolation to infinite time, individual animals",0.0321 µg·h/mL
same,Clearance,"[1]; female, White Landrace, pig, plasma, iv, 0.2 mg/kg, individual animals, read-out: Clearance",6.23 L/h/kg
same,Cmax,"[1]; female, White Landrace, pig, plasma, iv, 0.2 mg/kg, individual animals, read-out: Cmax - maximal concentration",0.158 µg/mL
same,MRT,"[1]; female, White Landrace, pig, plasma, iv, 0.2 mg/kg, individual animals, read-out: Mean residence time (converted)",14.5 min
same,half-life,"[1]; female, White Landrace, pig, plasma, iv, 0.2 mg/kg, individual animals, read-out: T1/2 - half-life",9 to 10 min
same,Vd,"[1]; female, White Landrace, pig, plasma, iv, 0.2 mg/kg, individual animals, read-out: Volume of distribution",1.3 L/kg
same,Vd,"[1]; female, White Landrace, pig, plasma, iv, 0.2 mg/kg, individual animals, read-out: Volume of distribution at steady state",1.51 L/kg
same,AUC,"[1]; female, White Landrace, pig, plasma, iv, 0.2 mg/kg, t=0 to 6 hours, individual animals",0.0279 µg·h/mL
same,Selectivity D4/D2,[2],160
same,Competitive binding (%) at 5 μM of tested compound,[3],7%
same,Competitive binding (%) at 5 μM of tested compound,[4],5%
same,Competitive binding (%) at 5 μM of tested compound,"[5]; Dopamine D4.4 receptor, 5 μM",31%
same,binding affinity to the D4.4 receptor (in words),[5]; Table 8,high binding affinity
same,Competitive binding (%) at 5 μM of tested compound,[6],5%
